The target in the assay is alanyl aminopeptidases (APN) (Homo sapiens, UniProt P15144). Description: Inhibition of alanyl aminopeptidase enzymatic activity, fluorogenic substrate (Ala)2-rhodamine 110. It is filed as biochemical. The method, then: The inhibition characteristics measured are referred to as IC-50 values or ID50 values (the latter marked with “*”) for said enzyme. The enzymatic activity was determined by means of the fluorogenic substrate/product (Ala)2-rhodamine 110.

Setting [1] is: Table 4, unstarred values, read-out: IC50APN.

Structures are written as SMILES. Like-named read-outs stand apart in the source and are kept apart here.

alanyl aminopeptidases (APN), sequence (P15144 whole entry, species assumed): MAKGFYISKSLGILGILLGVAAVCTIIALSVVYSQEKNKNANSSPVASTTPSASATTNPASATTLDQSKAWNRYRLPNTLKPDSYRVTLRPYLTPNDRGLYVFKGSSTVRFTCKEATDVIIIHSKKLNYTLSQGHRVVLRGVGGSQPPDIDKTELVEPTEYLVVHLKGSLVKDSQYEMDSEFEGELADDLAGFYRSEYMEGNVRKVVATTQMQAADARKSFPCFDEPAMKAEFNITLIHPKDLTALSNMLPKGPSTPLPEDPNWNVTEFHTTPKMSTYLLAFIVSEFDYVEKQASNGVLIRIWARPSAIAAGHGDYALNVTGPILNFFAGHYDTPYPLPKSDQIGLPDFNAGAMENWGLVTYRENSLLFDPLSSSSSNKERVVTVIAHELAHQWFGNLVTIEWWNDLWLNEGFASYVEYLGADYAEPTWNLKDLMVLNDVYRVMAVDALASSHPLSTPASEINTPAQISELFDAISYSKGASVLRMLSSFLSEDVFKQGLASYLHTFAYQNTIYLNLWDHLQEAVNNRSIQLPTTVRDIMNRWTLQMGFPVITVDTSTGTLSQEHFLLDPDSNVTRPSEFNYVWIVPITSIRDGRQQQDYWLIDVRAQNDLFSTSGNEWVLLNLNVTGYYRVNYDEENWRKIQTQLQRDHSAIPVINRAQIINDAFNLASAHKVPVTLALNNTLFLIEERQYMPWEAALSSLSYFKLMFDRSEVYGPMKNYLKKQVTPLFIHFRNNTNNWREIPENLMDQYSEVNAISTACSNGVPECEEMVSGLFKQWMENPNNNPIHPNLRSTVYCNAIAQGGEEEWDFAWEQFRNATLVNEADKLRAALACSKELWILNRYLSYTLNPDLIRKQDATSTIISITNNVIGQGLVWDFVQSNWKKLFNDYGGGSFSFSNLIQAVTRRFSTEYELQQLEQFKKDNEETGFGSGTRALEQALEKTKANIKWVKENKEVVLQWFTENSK

In the case of `CCOc1ccc(Br)cc1C(=O)N/N=C/c1ccco1` [A4.079], the IC50 under setting [1] worked out at 25.8 µM.
On the same count and under the same terms, as for `O=C(N/N=C/c1ccco1)c1cccc(NC(=O)c2ccc(F)cc2)c1` [A4.080], the figure is 25.9 µM; as for `O=C(CCCOc1ccc(Cl)cc1Cl)N/N=C/c1ccco1` [A4.081], 26.3 µM.
Take `Cc1ccc(/C=N/NC2=NC(=O)CS2)o1` [A4.082]: the IC50 under setting [1] was determined as 26.4 µM.
Same read-out and setting: as for `Cc1ccc(/C=N/NC(=O)c2cc(O)cc(O)c2)o1` [A4.083], the figure is 26.4 µM; as for `Cc1ccc(/C=N/NC(=O)c2nnn(-c3nonc3N)c2CN2CCOCC2)o1` [A4.084], 26.7 µM.
On the same count and under the same terms, as for `CCCCCC(=O)N/N=C/c1ccco1` [A4.085], the figure is 26.7 µM; as for `CCCOc1ccc(/C=C(\NC(=O)c2ccccc2)C(=O)N/N=C/c2ccco2)cc1` [A4.086], 27.3 µM; as for `Cc1nn(-c2ccccc2)c(C)c1-c1cc(C(=O)N/N=C/c2ccco2)[nH]n1` [A4.087], 27.4 µM.
`CC(/C=N/NC(=O)c1ccco1)=C\c1ccco1` [A4.088]: under setting [1], the IC50 stood at 27.5 µM.
On the same count and under the same terms, as for `CC1SC(N/N=C/c2ccco2)=NC1=O` (centres unmarked) [A4.089], the figure is 27.7 µM; as for `O=C(Cc1cccs1)N/N=C/C=C\c1ccco1` [A4.090], 28 µM; as for `CC(/C=C/c1ccco1)=N\NC(=O)CNc1ccc2ccccc2c1` [A4.091], 28.5 µM.
Regarding `CC(N/N=C1/SC(CC(=O)O)C(=O)N1c1ccccc1)c1ccco1` (centres unmarked) [A4.092], the IC50 under setting [1] came to 28.6 µM.
Same read-out and setting: the result for `COc1ccc(/C(C)=N/NC(=O)CNC(=O)/C=C\c2ccco2)cc1` [A4.093] reads 29.4 µM; that for `O=C(N/N=C/c1ccco1)c1cccc(NC(=O)c2ccccc2)c1` [A4.094], 29.5 µM; that for `CC(=O)Nc1ccc(C(=O)N/N=C/c2ccc(C)o2)cc1` [A4.095], 29.7 µM.
Regarding `Cc1ccc(/C=N/NC(=O)c2cccc(I)c2)o1` [A4.096], under setting [1], the IC50 is 30 µM.
Still for that read-out and setting: as for `O=C(N/N=C\c1ccco1)c1cnccn1` [A4.097], the figure is 30.1 µM; as for `Cc1occc1C(=O)N/N=C/C=C\c1ccco1` [A4.098], 31 µM.
On the same count and under the same terms, the result for `Cc1cc(C(=O)N/N=C/c2ccc(C)o2)[nH]n1` [A4.100] reads 31.8 µM; that for `O=C(CNC(=O)c1ccccc1Br)N/N=C/c1ccoc1` [A4.101], 31.9 µM; that for `O=C(CC(=O)N/N=C/c1ccco1)N/N=C/c1ccco1` [A4.102], 32.4 µM.
As for `O=C(N/N=C/c1ccco1)c1ccc(NC(=O)c2ccccc2Cl)cc1` [A4.103], the IC50 under setting [1] is 32.5 µM.
Same read-out and setting: the result for `CCOc1ccc(-c2cc(C(=O)N/N=C/c3ccco3)[nH]n2)cc1OC` [A4.104] reads 33.4 µM.
On to `Cc1cccc(C(=O)Nc2ccc(C(=O)N/N=C/c3ccc4c(c3)OCO4)cc2)c1` [A4.105], for which, for the setting “Table 4, starred values = ID50, read-out: ID50 APN (values marked with *)”, the IC50 amounted to 33.8 µM.
Regarding `O=C(CCC(=O)Nc1cccc(Cl)c1)N/N=C/c1ccco1` [A4.106], the IC50 under setting [1] is 34 µM.
In the case of `C/C(=N\NC(=O)c1ccccc1)c1ccc2ccccc2c1O` [A4.107], under setting [1], the IC50 is 34.2 µM.
For `Cc1ccc(/C=N/NC(=O)c2ccc(F)cc2)o1` [A4.108], the IC50 under setting [1] stood at 34.4 µM.
Same read-out and setting: as for `O=C(Nc1ccccc1C(=O)N/N=C/c1ccco1)c1ccccc1Cl` [A4.109], the figure is 34.7 µM.
Still for that read-out and setting: as for `COc1ccccc1C(=O)N/N=C/c1ccc(C)o1` [A4.110], the figure is 34.7 µM; as for `O=C(N/N=C/c1ccco1)c1cccc(I)c1` [A4.111], 34.7 µM; as for `CSc1nnc2n(/N=C/c3ccco3)cnn12` [A4.112], 34.7 µM.
Regarding `CC(=O)n1cc(/C=C/C=N/NC(=O)CC#N)c2ccccc21` [A4.113], under setting [1], the IC50 was found to be 35.5 µM.
The same measure, in the same setting: the result for `COc1cc(-c2cc(C(=O)N/N=C/c3ccco3)[nH]n2)ccc1OC(C)C` [A4.114] reads 36.1 µM; that for `Cc1cccc(C(=O)Nc2cccc(C(=O)N/N=C/c3ccc(C)o3)c2)c1` [A4.115], 36.2 µM; that for `COc1cc(Br)ccc1OCC(=O)N/N=C(C)/C=C/c1ccco1` [A4.116], 36.3 µM.
Take `Cc1ccc(OCC(=O)N/N=C/c2ccco2)cc1C` [A4.117]: under setting [1], the IC50 was 36.3 µM.

Source of the values: patent publication US20070037752A1, “Novel alanyl-amino peptidase inhibitors for functionally influencing different cells and treating immunological, inflammatory, neuronal, and other diseases” (priority 2003, published 2007).
